Results on two compounds are retold here after patent US20070248657A1, “Multi-compartment transdermal pain control device” (priority 2006, published 2007).

The conditions of series [1]: human.

Where two headings read alike, the source gives them in different places.

As to `COc1ccc2c(c1)[C@]13CCCC[C@@H]1[C@H](C2)N(C)CC3` [Dextromethorphan, dextromethorphan], the “flux through human cadaver epidermis (clinical significance)” value is reported as “higher than at a pH of 7.3” (human, pH 8.6); “clinically insignificant” (pH 5.6); “remains clinically insignificant” (pH 7.3).

Regarding `O=C(c1ccccc1)c1ccc2n1CCC2C(=O)O` (stereo not shown) [Ketorolac, ketorolac tromethamine], the “flux through human cadaver epidermis (clinical significance)” value is, setting by setting: (pH 5.6) “clinically significant”; (pH 7.3) “decreased to a clinically insignificant level”; (pH 8.6) “remains clinically insignificant”. Moreover, the “Cumulative Flux” value in series [1] (0 h) stood at 0 μg/cm^2; in series [1] (3 h) it was 24 μg/cm^2; in series [1] (6 h) it was 7 μg/cm^2; in series [1] (9 h), 11 μg/cm^2; in series [1] (24 h), 100 μg/cm^2; in series [1] (48 h) it was 412 μg/cm^2. Besides, the “Cumulative Flux” value in series [1] (72 h) was 726 μg/cm^2.
